{
  "source": "patent US12030940B2",
  "about": "“Immunotherapeutic tumor treatment method” (Nektar Therapeutics, priority 2017, dated 2024)",
  "tested_on": "B16F10 mouse melanoma tumors",
  "test": "Immune cells in tumor microenvironment by flow cytometry, subcutaneous B16F10 melanoma mice",
  "format": "in vivo",
  "data": [
    {"substance": "aldesleukin", "values": [
      {"measurement": "activated natural killer (NK) cells", "setting": "5 and 7 days after treatment initiation", "value": "increased"},
      {"measurement": "ratio of CD8/Treg in the tumor", "setting": "by day 7, single dose RSLAIL-2 or 5 doses aldesleukin", "value": 18},
      {"measurement": "total and memory CD8 T cells as percentage of tumor-infiltrating lymphocytes", "setting": "relative to vehicle", "value": "transient"},
      {"measurement": "percentage of Tregs (FoxP3+ subset of CD4) in tumor", "setting": "relative to vehicle, days 5, 7, 10", "value": "modest"}
    ]}
  ]
}
